Where “and” joins values, the source holds several entries; their conditions need not be identical. Equal entries are not always repeated.

The subject of one data set is 4T1 cells. In words: MTT assay, anti-tumor activity against 4T1 cells. The format is cell-based. The following applies: 72 h treatment. The text has this: (§1) Metastasis is the major reason of morbidity and mortality in cancer disease. In breast cancer patients, several tissues involving liver, lung, bone, and lymph node are affected by tumor involvement. The anti-tumor activities of all newly-synthesized thiophene derivatives were screened for human breast cancer cell lines 4T1, MDA-MB-231, and MCF-7 using MTT (3-(4,5-dimethylthiazol-2-yl)-2,5-diphenyltetrazolium bromide) assay in vitro. Cisplatin was used as a standard anti-tumor drug in this assay. […] The highest activity of 3h might have been due to the presence of electron-donating methylthio group (-SMe) on aromatic phenyl ring.
(§2) In brief, 0.8 × 10^5 cells/mL were seeded in 96-well plates and were incubated in a humidified CO2 incubator overnight. The following day, serial dilution of the samples was performed with various concentration. The plates were left to incubate with the treatment for 72 h. After the designated time, 20 μL of MTT (5 mg/mL) was inserted into each of the wells and the cells were further incubated for an additional 4 h. Later, the media and the treatment were removed from all of the wells and 100 μL of DMSO was added. The absorbance plates were then read using a spectrophotometer (BioTek) at 570 nm.
Background: Tetrazolium assays rely on reduction of a dye to a coloured formazan, in cell work by metabolically active cells.

In a further data set the test system is MCF-7 cells. In words: MTT assay, anti-tumor activity against MCF-7 cells. The format is cell-based, human.
From the text: as §1
The anti-tumor activity of these compounds was also studied for MCF-7 breast cancer cell line.
as §2

The next data set has as its system MDA-MB-231 cells. The data set can be described thus: MTT assay, anti-tumor activity against MDA-MB-231 cells. As to conditions: 72 h treatment. The format is cell-based, human.
From the text: as §1
The anti-tumor activity of all newly-synthesized compounds was also examined against MDA-MB-231 breast cancer cells. […] It is likely possible that the electron-withdrawing iodo groups (-I) attached with phenyl ring might have been affecting the cytotoxicity of MDA-MB-231 cells.
as §2

For the next data set, the system named is Escherichia coli. The data set can be described thus: Biofilm inhibition assay. As to conditions: E. coli, 50 μM/mL, 24 h at 37 °C. The format is cell-based. As to the method: Pathogenic micro-organisms form a biofilm, which mainly causes morbidness and mortality. This biofilm consists of conglomerations of bacterial cells and secured by a polymeric substance created by itself. Several fatal infections are caused by biofilms and they are difficult to remove. The inhibition activities of all newly-synthesized thiophene derivatives (3a–i) against biofilm formation were assayed using the previously-reported method. The experimentally-determined biofilm inhibition values for all compounds are expressed in Table 3. A selected strain of Gram-negative bacteria (Escherichia coli) was used to determine the anti-bacterial activity of all new derivatives at concentration of 50 μM/mL. […] A likely possible cause of this high activity can be attributed to the electron-withdrawing substituents attached with the aromatic phenyl ring of 3d, which might have been playing a significant role for increasing the anti-bacterial activity of this compound against Gram-negative bacteria. We believe that our newly-developed thiophene-based compounds with high % inhibition values can be potentially used to control the formation of biofilms.
The newly-synthesized thiophene derivatives were assayed for their biofilm inhibition activity using the previously reported method. For these measurements, the solutions of the thiophene derivatives were prepared in ethyl acetate. In brief, about 100 μL of sample solutions (3a–i) and 100 μL nutrient broth (Oxoid, Hampshire, UK) along with bacterial suspension (20 μL) were placed on the wells of 96-well sterile culture plates. Rifampicin was used as a positive control, while nutrient broth was used as a negative control for these biofilm inhibition activity measurements. The plates were covered and incubated for 24 h at 37 °C. Each plate was washed three times by using 220 μL of phosphate-buffered solution. After washing, each plate was shaken strongly in order to remove the non-adherent bacteria. 220 μL of 99% methanol solution was used to fix the remaining bacteria from these plates, followed by the drying in hot oven. After drying, the plates were stained with […] of crystal violet with a concentration of […] for five minutes. The excess stain from these plates was removed simply by using tap water. About 220 µL glacial acetic acid (33% concentration) was used to remove the dye attached with the cells. Each well was examined for OD value with the help of the micro-plate reader (BioTek, Winooski, VT, USA) at 630 nm.

The next data set deals with human blood clots. The data set can be described thus: Anti-thrombolytic activity (in vitro clot lysis). The following applies: 100 μL sample, 90 min at 37 °C. The source says: Cerebral Venous Sinus Thrombosis (CVST) is a central nervous disorder, which is a common disease caused by thrombophilia and […]. This fatal disease has been treated by the application of intravenous heparin and warfarin drugs. Now a days, this disease is usually cured by thrombolytic drugs, such as urokinase and streptokinase, which are playing a significant effect in the cure of CVST [25]. In the present study, we have explored the potential of our newly synthesized thiophene derivatives for anti-thrombolytic activity by the procedure reported elsewhere. […] This highest value of % lysis achieved by 3g can be attributed to the electron-withdrawing fluorine and chlorine groups on the aromatic ring.
The anti-thrombolytic activity of all newly-synthesized thiophene derivatives was investigated by following the previously-reported method. In a typical procedure, the sterile eppendorfs were filled with fresh venous blood taken from the human volunteers. The eppendorf tubes, which contained human blood (500 μL), were placed for 45 min at 37 °C to allow for clot formation. Once the clots were formed, the known volumes (100 μL) of sample solutions (3a–i) were added in eppendorfs having no serum in the blood samples. Basically, the serum was removed from blood prior to the clot formation stage. After the addition of samples, the tubes were incubated again for 90 min at 37 °C. For each experiment, the compound Streptokinase was used as a positive control, while water was used as a negative control. The anti-thrombolytic activity of newly-synthesized products was determined at percentage.

A further data set has as its system red blood cells (RBCs). The data set can be described thus: Haemolytic activity. In kind it is cell-based. As to conditions: 30 min, pH 7.4. The text has this: The newly-synthesized molecules (3a–i) were also examined for their hemolytic activity, following the method reported by Powell and co-workers. The standard drug Triton X-100 was employed as a reference in these measurements. […] Ding et al. reported that chloro group-containing molecules display facile haemolytic activity as compared with those compounds having a methyl group substitution on the ring.
The hemolytic activity of newly synthesized thiophene derivatives was examined by following the previously-reported method. For these measurements, the solutions of the thiophene derivatives were prepared in ethyl acetate. In brief, about 3 mL of newly-obtained heparinized blood was taken in 15 mL sterile Falcon tube, which was later centrifuged for 5 min at 850 rpm. The supernatant was removed and washed three times and was later placed at room temperature for 30 min. In order to wash the thick pellet, 5 mL of ice-cold (4 °C) phosphate-buffered saline (PBS) having pH 7.4 was employed. The same PBS buffer (20 mL) was used to maintain the cells over longer periods of time. The erythrocytes present in cells were measured and diluted with PBS buffer. Approximately 180 µL of this suspension of erythrocytes was taken along with 20 µL of sample solution (3a–i) in eppendorfs. These eppendorfs were incubated thermally at human body temperature for 30 min, followed by centrifuging at 1310 rpm again for 5 min. After significant centrifugation, the supernatant was removed and diluted with phosphate-buffered saline (900 µL) and was later placed on ice. Each sample solution (200 µL) was kept in 96-well culture plates. For each measurement, phosphate-buffered saline and 0.1% Triton X-100 were employed as negative and positive control, respectively. A quant instrument was used to observe the absorbance of all sample solutions at 576 nm.

The mark [1] stands for this setting: Homo sapiens, MCF7, 72 h treatment.

As to `N.N.[Cl][Pt][Cl]` [Cisplatin, reference compound], the IC50 (as a rule, the midpoint of a concentration-inhibition curve) with 4T1 cells was 21.5 µM; in the data set on MCF-7 cells (72 h treatment), 48 µM and 48.3 µM; in the data set on MDA-MB-231 cells, 29 µM and 29.1 µM.
Consider `CCCCCCc1cc(-c2ccc(C)cc2)sc1-c1ccc(C)cc1` [Compound 3a, 2,5-Bis(4-methylphenyl)-3-hexylthiophene], for which the IC50 with 4T1 cells (4T1, 72 h) stood at 30.5 ± 0.08 µM; with MCF-7 cells (setting [1]), 26.2 ± 0.7 µM; in the data set on MDA-MB-231 cells (Homo sapiens) it was 36.8 ± 0.21 µM. Moreover, in the data set with Escherichia coli, 50 µM produced 62.5 ± 0.038% inhibition. Further, the “% Lysis (clot lysis, anti-thrombolytic activity)” value with human blood clots is 16.25 ± 0.028%.
Consider `CCCCCCc1cc(-c2cc(C)cc(C)c2)sc1-c1cc(C)cc(C)c1` [Compound 3b, 2,5-Bis(3,5-dimethylphenyl)-3-hexylthiophene], for which the IC50 with 4T1 cells (4T1, 72 h) amounted to 30 ± 0.81 µM; with MCF-7 cells (setting [1]) it was 33.8 ± 0.29 µM; in the data set on MDA-MB-231 cells (Homo sapiens), 32.2 ± 2.73 µM. Further, the inhibition (commonly the share of the control response that was lost under treatment) at 50 µM in the data set on Escherichia coli amounted to 59.48 ± 0.073%. Besides, in the data set with red blood cells (RBCs), the “% Lysis of RBC” value is 4.54 ± 0.014%. Moreover, in the data set with human blood clots, the “% Lysis (clot lysis, anti-thrombolytic activity)” value is 25.32 ± 0.092%.
As for `CCCCCCc1cc(-c2ccc(OC)cc2)sc1-c1ccc(OC)cc1` [Compound 3c, 3-Hexyl-2,5-bis(4-methoxyphenyl)thiophene], the IC50 in the data set on 4T1 cells (4T1, 72 h) was found to be 29.5 ± 4.3 µM; in the data set on MCF-7 cells (setting [1]), 35.7 ± 0.09 µM; with MDA-MB-231 cells (Homo sapiens) it was 40 ± 0.41 µM. The same compound showed an inhibition at 50 µM in the data set with Escherichia coli of 73.27 ± 0.023%. Further, the “% Lysis of RBC” value in the data set on red blood cells (RBCs) amounted to 5.80 ± 0.045%. In addition, the “% Lysis (clot lysis, anti-thrombolytic activity)” value with human blood clots was 41.12% and 41.12 ± 0.035%.
Take `CCCCCCc1cc(-c2ccc(Cl)cc2)sc1-c1ccc(Cl)cc1` [Compound 3d, 2,5-Bis(4-chlorophenyl)-3-hexylthiophene]: the IC50 in the data set on 4T1 cells (4T1, 72 h) was determined as 22.8 ± 0.04 µM; in the data set on MCF-7 cells (setting [1]), 27.5 ± 0.67 µM; with MDA-MB-231 cells (Homo sapiens), 24.8 ± 0.56 µM. Also, the inhibition at 50 µM in the data set with Escherichia coli is 78.85 ± 0.057%. Further, the “% Lysis of RBC” value in the data set on red blood cells (RBCs) stood at 6.66 ± 0.057%. Moreover, in the data set with human blood clots, the “% Lysis (clot lysis, anti-thrombolytic activity)” value is given as 2.04 ± 0.091%.
Take `CCCCCCc1cc(-c2ccc(I)cc2)sc1-c1ccc(I)cc1` [Compound 3e, 3-Hexyl-2,5-bis(4-iodophenyl)thiophene]: the IC50 came out at 21.5 ± 3.71 µM in the data set on 4T1 cells (4T1, 72 h); 91.4 ± 0.59 µM in the data set on MCF-7 cells (setting [1]); 22.9 ± 3.8 µM in the data set with MDA-MB-231 cells (Homo sapiens). Further, in the data set on Escherichia coli, the inhibition at 50 µM came to 73.8 ± 0.032%. Also, the “% Lysis of RBC” value in the data set on red blood cells (RBCs) was found to be 3.62 ± 0.024%. Moreover, in the data set with human blood clots, the “% Lysis (clot lysis, anti-thrombolytic activity)” value came to 32.42 ± 0.046%.
As to `CCCCCCc1cc(-c2cc(F)cc(F)c2)sc1-c1cc(F)cc(F)c1` [Compound 3f, 2,5-Bis(3,5-difluorophenyl)-3-hexylthiophene], the IC50 in the data set with 4T1 cells (4T1, 72 h) amounted to 31.5 ± 1.1 µM; in the data set on MCF-7 cells (setting [1]), 42.8 ± 2.87 µM; with MDA-MB-231 cells (Homo sapiens) it was 28.1 ± 0.72 µM. Also, the inhibition at 50 µM in the data set on Escherichia coli was 69.68 ± 0.049%. For the same compound, the “% Lysis (clot lysis, anti-thrombolytic activity)” value with human blood clots is on record as 12.34 ± 0.073%.
For `CCCCCCc1cc(-c2ccc(F)c(Cl)c2)sc1-c1ccc(F)c(Cl)c1` [Compound 3g, 2,5-Bis(3-chloro-4-fluorophenyl)-3-hexylthiophene], the IC50 in the data set on 4T1 cells (4T1, 72 h) worked out at 22 ± 0.57 µM; in the data set on MCF-7 cells (setting [1]), 44 ± 0.17 µM; in the data set with MDA-MB-231 cells (Homo sapiens) it was 26.2 ± 0.28 µM. In the data set on Escherichia coli, this compound yielded an inhibition at 50 µM of 75.53 ± 0.041%. For the same compound, in the data set with red blood cells (RBCs), the “% Lysis of RBC” value is reported as 15.57 ± 0.034%. Moreover, the “% Lysis (clot lysis, anti-thrombolytic activity)” value with human blood clots is 53.12% and 53.12 ± 0.063%.
With `CCCCCCc1cc(-c2ccc(SC)cc2)sc1-c1ccc(SC)cc1` [Compound 3h, 3-Hexyl-2,5-bis(4-(methylthio)phenyl)thiophene], the IC50 in the data set with 4T1 cells (4T1, 72 h) is 16 µM; in the data set on 4T1 cells, 16.1 ± 0.09 µM; with MCF-7 cells (setting [1]) it was 35.1 ± 3.8 µM; with MDA-MB-231 cells (Homo sapiens), 29.2 ± 0.04 µM. The compound also registered an inhibition at 50 µM in the data set on Escherichia coli of 27.12 ± 0.039%. In addition, the “% Lysis (clot lysis, anti-thrombolytic activity)” value with human blood clots came to 0.27 ± 0.021%.
Regarding `CCCCCCc1cc(-c2cccc(C(C)=O)c2)sc1-c1cccc(C(C)=O)c1` [Compound 3i, 2,5-Bis(3-acetylphenyl)-3-hexylthiophene], the IC50 came out at 23.2 ± 0.08 µM with 4T1 cells (4T1, 72 h); 36.8 ± 0.03 µM in the data set with MCF-7 cells (setting [1]); 36.8 ± 0.82 µM in the data set with MDA-MB-231 cells (Homo sapiens). In the data set with Escherichia coli, this compound showed an inhibition at 50 µM of 76.86 ± 0.083%. The “% Lysis (clot lysis, anti-thrombolytic activity)” value in the data set on human blood clots was found to be 1.84 ± 0.083%.
Streptokinase [reference compound]: the “% Lysis (clot lysis, anti-thrombolytic activity)” value with human blood clots was found to be 100%.

(Values after article PMC6273304, “Efficient Double Suzuki Cross-Coupling Reactions of 2,5-Dibromo-3-hexylthiophene: Anti-Tumor, Haemolytic, Anti-Thrombolytic and Biofilm Inhibition Studies” (Molecules, 2016).)
